Test results reported in patent US11986532B2 (Arvinas Operations, Inc., priority 2021, dated 2024).

Target: T1, BCL6 (Homo sapiens, UniProt P41182)
T1 construct: endogenous in cells; host or cells: T47D breast cancer epithelial cells
Test: Immunofluorescence protocol for high content imaging of BCL6 (degradation) in T47D cells, 3 days compound treatment
Format: cell-based
Settings: T47D cells, 3 days compound treatment; for DC50: read-out: Mean DC50 (nM)* category; for Dmax: read-out: Mean Dmax (%)** category
In short: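 T47D, RPMI1640/10% FBS; cpd 11-pt 3-fold, top 0.1 or 1 μM final; 3 d, 37° C. Fix 4% PFA, perm 0.1% Triton, block 3% BSA; anti-BCL6 1:300 o/n 4° C; Alexa-488 2°, CellMask-647, Hoechst. Imaged 10×, 4 fields/well.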

SMILES | DC50 | Dmax
CNC(=O)COc1cc2cc(Nc3nc(N4CCC(OC5CCC6(CCN(c7ccc8c(c7)CN(C7CCC(=O)NC7=O)C8=O)C6)C5)CC4)ncc3Cl)ccc2n(C(C)C)c1=O (centres unmarked) [Compound 98, 2-{[6-({5-chloro-2-[4-({2-[2-(2,6-dioxopiperidin-3-yl)-1-oxo-2,3-dihydro-1H-isoindol-5-yl]-2-azaspiro[4.4]nonan-7-yl}oxy)piperidin-1-yl]pyrimidin-4-yl}amino)-2-oxo-1-(propan-2-yl)-1,2-dihydroquinolin-3-yl]oxy}-N-methylacetamide] | < 10 nM | < 50%
CNC(=O)COc1cc2cc(Nc3nc(N4CCC(F)(CN5CC6(CCN(c7cccc8c7CN(C7CCC(=O)NC7=O)C8=O)CC6)C5)CC4)ncc3Cl)ccc2n(C(C)C)c1=O (centres unmarked) [Compound 99] | < 10 nM | 50 to 70%
CNC(=O)COc1cc2cc(Nc3nc(N4CCC(CN5CCC6(CN(c7cc8c(cc7F)C(=O)N(C7CCC(=O)NC7=O)C8)C6)C(F)(F)C5)CC4)ncc3Cl)ccc2n(C(C)C)c1=O (centres unmarked) [Compound 100, 2-{[6-({5-chloro-2-[4-({2-[2-(2,6-dioxopiperidin-3-yl)-6-fluoro-1-oxo-2,3-dihydro-1H-isoindol-5-yl]-5,5-difluoro-2,7-diazaspiro[3.5]nonan-7-yl}methyl)piperidin-1-yl]pyrimidin-4-yl}amino)-2-oxo-1-(propan-2-yl)-1,2-dihydroquinolin-3-yl]oxy}-N-methylacetamide] | < 10 nM | 50 to 70%
CNC(=O)COc1cc2cc(Nc3nc(N4CCC(CN5CCC6(CN(c7cc8c(c(OC)c7)C(=O)N(C7CCC(=O)NC7=O)C8)C6)C(F)(F)C5)CC4)ncc3Cl)ccc2n(C(C)C)c1=O (centres unmarked) [Compound 101, 2-{[6-({5-chloro-2-[4-({2-[2-(2,6-dioxopiperidin-3-yl)-7-methoxy-1-oxo-2,3-dihydro-1H-isoindol-5-yl]-5,5-difluoro-2,7-diazaspiro[3.5]nonan-7-yl}methyl)piperidin-1-yl]pyrimidin-4-yl}amino)-2-oxo-1-(propan-2-yl)-1,2-dihydroquinolin-3-yl]oxy}-N-methylacetamide] | < 10 nM | 50 to 70%
CNC(=O)COc1cc2cc(Nc3nc(N4CCC(CN5CCC6(CN(c7cccc8c7CN(C7CCC(=O)NC7=O)C8=O)C6)C(F)(F)C5)CC4)ncc3Cl)ccc2n(C(C)C)c1=O (centres unmarked) [Compound 102, 2-{[6-({5-chloro-2-[4-({2-[2-(2,6-dioxopiperidin-3-yl)-1-oxo-2,3-dihydro-1H-isoindol-4-yl]-5,5-difluoro-2,7-diazaspiro[3.5]nonan-7-yl}methyl)piperidin-1-yl]pyrimidin-4-yl}amino)-2-oxo-1-(propan-2-yl)-1,2-dihydroquinolin-3-yl]oxy}-N-methylacetamide] | < 10 nM | 50 to 70%
CNC(=O)COc1cc2cc(Nc3nc(N4CCC(O[C@H]5C[C@H](N6CCC(c7cc8c(c(OC)c7)C(=O)N(C7CCC(=O)NC7=O)C8)CC6)C5)CC4)ncc3Cl)ccc2n(C(C)C)c1=O (some centres unmarked) [Compound 103, 2-({6-[(5-chloro-2-{4-[(1r,3r)-3-{4-[2-(2,6-dioxopiperidin-3-yl)-7-methoxy-1-oxo-2,3-dihydro-1H-isoindol-5-yl]piperidin-1-yl}cyclobutoxy]piperidin-1-yl}pyrimidin-4-yl)amino]-2-oxo-1-(propan-2-yl)-1,2-dihydroquinolin-3-yl}oxy)-N-methylacetamide] | < 10 nM | 50 to 70%
CNC(=O)COc1cc2cc(Nc3nc(N4CCN(C(C)(C)C5CCN(c6cccc7c6CN(C6CCC(=O)NC6=O)C7=O)CC5)CC4)ncc3Cl)ccc2n(C(C)C)c1=O (centres unmarked) [Compound 104, 2-{[6-({5-chloro-2-[4-(2-{1-[2-(2,6-dioxopiperidin-3-yl)-1-oxo-2,3-dihydro-1H-isoindol-4-yl]piperidin-4-yl}propan-2-yl)piperazin-1-yl]pyrimidin-4-yl}amino)-2-oxo-1-(propan-2-yl)-1,2-dihydroquinolin-3-yl]oxy}-N-methylacetamide] | < 10 nM | 50 to 70%
